Test results taken from US9274101B2 (BIOLOG, Inc., priority 2001, dated 2016).
“Also recorded” adds a separate entry of the source.

Legend:
[1] = test system: HL-60 cells; experiment: HL-60 responses to selected compounds at a range of concentrations; assay type: cell-based, human; settings: for activity at 30 µM / activity at 100 µM / activity at 330 µM / activity at 1000 µM / activity at 3300 µM / activity at 10000 µM / activity at 15000 µM / activity at 20000 µM: Homo sapiens, HL-60, read-out: HL-60 Cell Responses to Selected Compounds from PM1 and PM2
Method: In this Example, methods for testing unattached cells for their ability to use various concentrations of selected carbon sources are described. The carbon sources used in this Example were identified by the methods disclosed in Example 27. Similarly, HL-60 cells were cultured as described in Example 27.
After washing, HL-60 cells were resuspended in DME-R. An aliquot of the cell suspension was counted by trypan blue exclusion and the cell density was adjusted to 6.67×10^5/mL. Fifty μL of DME-R were added to each well of the appropriate number of half area, 96-well plates, followed by 23 μL of the appropriate dilution of each test energy source. Stocks of 133 mM of each test chemical were prepared in tissue culture grade water, sterile filtered, and dilutions were prepared in a master plate so that, upon dilution in a total volume of 150 μL, the final concentrations would be 0.033 to 20 mM. Negative control wells received 23 μL of tissue culture grade water. The cells were plated at a volume of 75 μL/well, giving a final cell density of 5×10^4/well. For each plate containing energy sources and cells, a second, control plate containing only energy sources was prepared. Plates were incubated at 5% CO2, 90-100% humidity, and 37° C. for 24 hours prior to addition of the MTS/MPMS colorometric reagent (7.5 μL/well). The color formed in each well after an additional 24 hour incubation period, was measured on a plate reader at 490 nm with a reference wavelength of 650 nm. OD values from the control plate were subtracted from the OD values obtained with cells prior to normalizing the data to % negative control (cells without added energy source).

[2] = test system: Undifferentiated HL-60 cells; experiment: Energy use by undifferentiated HL-60 cells; assay type: cell-based, human; settings: for activity at 30 µM / activity at 100 µM / activity at 330 µM / activity at 1000 µM / activity at 3300 µM / activity at 10000 µM / activity at 15000 µM / activity at 20000 µM: Homo sapiens, HL-60, 24 h, read-out: Energy Use by Undifferentiated HL-60 Cells
[3] = test system: DMSO-differentiated HL-60 cells; experiment: Energy use by DMSO-differentiated HL-60 cells; assay type: cell-based, human; settings: for activity at 30 µM / activity at 100 µM / activity at 330 µM / activity at 1000 µM / activity at 3300 µM / activity at 10000 µM / activity at 15000 µM / activity at 20000 µM: Homo sapiens, HL-60, 24 h, read-out: Energy Use by DMSO-Differentiated HL-60 Cells
Method: In this Example, methods for testing in vitro-differentiated cells for their ability to use multiple energy sources are described. Prior to differentiation, HL-60 cells were cultured as described in Example 27. DMSO-induced differentiation (Odani et al., Res. Commun. Mol. Pathol. Pharmacol. 108:381-391 [2000]; and Yamaguchi et al., Biol. Pharm. Bull. 20:943-947 [1997]) was accomplished by incubation of the cells in the presence of 1.25% DMSO for 3 days.
After washing, HL-60 cells were resuspended in DME-R. An aliquot of the cell suspension was counted by trypan blue exclusion and the cell density was adjusted to 6.67×10^5/mL. Fifty μL of DME-R were added to each well of the appropriate number of half area, 96-well plates, followed by 25 μL of the appropriate dilution of each test energy source. Stocks of 133 mM of each test chemical were prepared in tissue culture grade water, sterile filtered, and dilutions were prepared in a master plate so that, upon dilution into a half-area 96-well microtiter plate to a total well volume of 150 μL, the final concentrations would be 0.033 to 20 mM. Negative control wells received 25 μL of tissue culture grade water. The cells were plated at a volume of 75 μL/well, giving a final cell density of 5×10^4/well. For each plate containing energy sources and cells, a second, control plate containing only energy sources was prepared with the same total volume of liquid (148 μL/well). Plates were incubated at 5% CO2, 90-100% humidity, and 37° C. for 24 hours prior to addition of the MTS/MPMS calorimetric reagent (7.5 μL/well). The color formed in each well 24 hours after addition of the colorimetric reagent, was measured with a plate reader at 490 nm with a reference wavelength of 650 nm. OD values from the control plate were subtracted from the OD values obtained with cells prior to normalizing the data to % negative control (cells without added energy source).

[4] = test system: HL-60 cells; experiment: Effect of 10 mM citric acid on HL-60 energy utilization; assay type: cell-based, human; settings: for Effect of 10 mM Citric Acid on HL-60 Energy Utilization: negative control without energy sources and without citric acid
[5] = test system: E. coli MG1655; assay type: cell-based, Escherichia coli
[6] = energy source 0.03 mM with 10 mM citric acid
[7] = energy source 0.10 mM with 10 mM citric acid
[8] = energy source 0.33 mM with 10 mM citric acid
[9] = energy source 1.00 mM with 10 mM citric acid
[10] = energy source 3.3 mM with 10 mM citric acid
[11] = energy source 10 mM with 10 mM citric acid
[12] = energy source 15 mM with 10 mM citric acid
[13] = energy source 20 mM with 10 mM citric acid

O=C1O[C@@H]([C@H](O)CO)[C@H](O)[C@H]1O [D-gal acid g-lactone]
HL-60 Cell Responses to Selected Compounds from PM1 and PM2 ([1]; Conc. 0.03 mM): 128.3 % of negative control | HL-60 Cell Responses to Selected Compounds from PM1 and PM2 ([1]; Conc. 0.10 mM): 128.7 % of negative control | HL-60 Cell Responses to Selected Compounds from PM1 and PM2 ([1]; Conc. 0.33 mM): 129.3 % of negative control | HL-60 Cell Responses to Selected Compounds from PM1 and PM2 ([1]; Conc. 1.00 mM): 141.4 % of negative control | HL-60 Cell Responses to Selected Compounds from PM1 and PM2 ([1]; Conc. 3.3 mM): 142.2 % of negative control | HL-60 Cell Responses to Selected Compounds from PM1 and PM2 ([1]; Conc. 10 mM): 127.1 % of negative control | HL-60 Cell Responses to Selected Compounds from PM1 and PM2 ([1]; Conc. 15 mM): 122.2 % of negative control | HL-60 Cell Responses to Selected Compounds from PM1 and PM2 ([1]; Conc. 20 mM): 93.9 % of negative control | Energy Use by Undifferentiated HL-60 Cells ([2]; Conc. 0.03 mM): 122.7 % of negative control | Energy Use by Undifferentiated HL-60 Cells ([2]; Conc. 0.10 mM): 127.4 % of negative control | Energy Use by Undifferentiated HL-60 Cells ([2]; Conc. 0.33 mM): 125.3 % of negative control | Energy Use by Undifferentiated HL-60 Cells ([2]; Conc. 1.00 mM): 133.2 % of negative control | Energy Use by Undifferentiated HL-60 Cells ([2]; Conc. 3.3 mM): 152.6 % of negative control | Energy Use by Undifferentiated HL-60 Cells ([2]; Conc. 10 mM): 136.7 % of negative control | Energy Use by Undifferentiated HL-60 Cells ([2]; Conc. 15 mM): 147.5 % of negative control | Energy Use by Undifferentiated HL-60 Cells ([2]; Conc. 20 mM): 125.0 % of negative control | Energy Use by DMSO-Differentiated HL-60 Cells ([3]; Conc. 0.03 mM): 111.9 % of negative control | Energy Use by DMSO-Differentiated HL-60 Cells ([3]; Conc. 0.10 mM): 122.9 % of negative control | Energy Use by DMSO-Differentiated HL-60 Cells ([3]; Conc. 0.33 mM): 133.3 % of negative control | Energy Use by DMSO-Differentiated HL-60 Cells ([3]; Conc. 1.00 mM): 157.1 % of negative control | Energy Use by DMSO-Differentiated HL-60 Cells ([3]; Conc. 3.3 mM): 185.9 % of negative control | Energy Use by DMSO-Differentiated HL-60 Cells ([3]; Conc. 10 mM): 166.9 % of negative control | Energy Use by DMSO-Differentiated HL-60 Cells ([3]; Conc. 15 mM): 130.4 % of negative control | Energy Use by DMSO-Differentiated HL-60 Cells ([3]; Conc. 20 mM): 99.2 % of negative control | Effect of 10 mM Citric Acid on HL-60 Energy Utilization [4, 6]: 9.5 % of negative control | Effect of 10 mM Citric Acid on HL-60 Energy Utilization [4, 7]: 20.9 % of negative control | Effect of 10 mM Citric Acid on HL-60 Energy Utilization [4, 8]: 35.7 % of negative control | Effect of 10 mM Citric Acid on HL-60 Energy Utilization [4, 9]: 63.3 % of negative control | Effect of 10 mM Citric Acid on HL-60 Energy Utilization [4, 10]: 162.8 % of negative control | Effect of 10 mM Citric Acid on HL-60 Energy Utilization [4, 11]: 151.5 % of negative control | Effect of 10 mM Citric Acid on HL-60 Energy Utilization [4, 12]: 126.5 % of negative control | Effect of 10 mM Citric Acid on HL-60 Energy Utilization [4, 13]: 115.7 % of negative control

O=C[C@H](O)[C@@H](O)[C@@H](O)[C@H](O)C(=O)O [D-galacturonic acid]
activity at 30 µM ([1]; Conc. 0.03 mM): 124% | activity at 100 µM ([1]; Conc. 0.10 mM): 125% | activity at 330 µM ([1]; Conc. 0.33 mM): 126% | activity at 1000 µM ([1]; Conc. 1.00 mM): 138% | activity at 3300 µM ([1]; Conc. 3.3 mM): 140% | activity at 10000 µM ([1]; Conc. 10 mM): 122% | activity at 15000 µM ([1]; Conc. 15 mM): 101% | activity at 20000 µM ([1]; Conc. 20 mM): 25% | activity at 30 µM ([2]; Conc. 0.03 mM): 116% | activity at 100 µM ([2]; Conc. 0.10 mM): 116% | activity at 330 µM ([2]; Conc. 0.33 mM): 116% | activity at 1000 µM ([2]; Conc. 1.00 mM): 141% | activity at 3300 µM ([2]; Conc. 3.3 mM): 144% | activity at 10000 µM ([2]; Conc. 10 mM): 134% | activity at 15000 µM ([2]; Conc. 15 mM): 162% | activity at 20000 µM ([2]; Conc. 20 mM): 113% | activity at 30 µM ([3]; Conc. 0.03 mM): 118% | activity at 100 µM ([3]; Conc. 0.10 mM): 123% | activity at 330 µM ([3]; Conc. 0.33 mM): 138% | activity at 1000 µM ([3]; Conc. 1.00 mM): 157% | activity at 3300 µM ([3]; Conc. 3.3 mM): 168% | activity at 10000 µM ([3]; Conc. 10 mM): 173% | activity at 15000 µM ([3]; Conc. 15 mM): 126% | activity at 20000 µM ([3]; Conc. 20 mM): 101% | cell activity in the presence of citric acid, in words ([4]; 10 mM citric acid): acitivity; also recorded: capable of overcoming the antiproliferative effects of citric acid | Effect of 10 mM Citric Acid on HL-60 Energy Utilization [4, 6]: 1.4 % of negative control | Effect of 10 mM Citric Acid on HL-60 Energy Utilization [4, 7]: 12.8 % of negative control | Effect of 10 mM Citric Acid on HL-60 Energy Utilization [4, 8]: 43.5 % of negative control | Effect of 10 mM Citric Acid on HL-60 Energy Utilization [4, 9]: 61.8 % of negative control | Effect of 10 mM Citric Acid on HL-60 Energy Utilization [4, 10]: 141.6 % of negative control | Effect of 10 mM Citric Acid on HL-60 Energy Utilization [4, 11]: 177.0 % of negative control | Effect of 10 mM Citric Acid on HL-60 Energy Utilization [4, 12]: 136.3 % of negative control | Effect of 10 mM Citric Acid on HL-60 Energy Utilization [4, 13]: 110.8 % of negative control

N[C@@H](Cc1c[nH]cn1)C(=O)O [L-histidine]
suitability as nitrogen source (growth, purple color) [5]: not suitable | activity at 30 µM ([1]; Conc. 0.03 mM): 123% | activity at 100 µM ([1]; Conc. 0.10 mM): 121% | activity at 330 µM ([1]; Conc. 0.33 mM): 128% | activity at 1000 µM ([1]; Conc. 1.00 mM): 135% | activity at 3300 µM ([1]; Conc. 3.3 mM): 146% | activity at 10000 µM ([1]; Conc. 10 mM): 120% | activity at 15000 µM ([1]; Conc. 15 mM): 123% | activity at 20000 µM ([1]; Conc. 20 mM): 95% | activity at 30 µM ([2]; Conc. 0.03 mM): 119% | activity at 100 µM ([2]; Conc. 0.10 mM): 117% | activity at 330 µM ([2]; Conc. 0.33 mM): 105% | activity at 1000 µM ([2]; Conc. 1.00 mM): 118% | activity at 3300 µM ([2]; Conc. 3.3 mM): 162% | activity at 10000 µM ([2]; Conc. 10 mM): 144% | activity at 15000 µM ([2]; Conc. 15 mM): 149% | activity at 20000 µM ([2]; Conc. 20 mM): 104% | activity at 30 µM ([3]; Conc. 0.03 mM): 119% | activity at 100 µM ([3]; Conc. 0.10 mM): 123% | activity at 330 µM ([3]; Conc. 0.33 mM): 128% | activity at 1000 µM ([3]; Conc. 1.00 mM): 157% | activity at 3300 µM ([3]; Conc. 3.3 mM): 172% | activity at 10000 µM ([3]; Conc. 10 mM): 171% | activity at 15000 µM ([3]; Conc. 15 mM): 140% | activity at 20000 µM ([3]; Conc. 20 mM): 114%
